Patent US20040014772A1, “Compositions and methods for treating glomerular disorders” (priority 2000, published 2004)
“Also recorded” adds a separate entry of the source.

Tests used:
[1] = Weight loss/gain of rats before and after treatments (PAN-induced nephrotic syndrome); format: in vivo, rat; details: for Body weight After Treatment (day7): rats, day 7, PAN 7.5 mg/100 g BW iv, CM 120 mg/kg ip twice a day, PB 400 mg/kg ip every other day, means ± SE
Description: (§1) Two different general CYP inhibitors were used, cimetidine (CM) and piperonyl butoxide (PB). Cimetidine has imidazole and cyano groups that inhibit CYP by interacting with the heme moiety. […] To determine the effect of the CYP inhibitors in PAN- induced nephrotic syndrome, CM (120 mg/kg BW) was administered intraperitoneal 1 h prior to PAN injection and then twice a day. Piperonyl butoxide (PB) which yields a metabolite that binds to the heme moiety of CYP, was given intraperitoneal (400 mg/kg BW) 4h before PAN injection and then every other day.
Also, the CYP2B1 inhibitor piperine (PIP), a methylenedioxyphenyl compound found in black and red pepper was used. PIP is believed to inhibit CYP2B1 by forming an inhibitory complex therewith. PIP was administered at a dose of 85 mg/kg of body weight (BW) by an intraperitoneal injection 16 hours prior to PAN injection and then once a day.

[2] = test system: PAN-induced nephrotic syndrome; experiment: PAN-induced nephrotic syndrome: proteinuria and serum albumin; format: in vivo, rat; details: PAN-treated rats; for proteinuria: daily urine protein to day 7; for serum albumin: day 7
Description: (§2) Male Sprague-Dawley rats weighing 200-250 g were injected either saline or a single intravenous injection of PAN (Sigma, St. Louis) in a dose of 7.5 mg/100g BW (day 0) as described in Ueda et al, 19996, Kidney Intl. 49:370-373. Animals were housed in separate metabolic cages and allowed free access to rat chow (Purina). Daily urine protein excretion was determined and animals were sacrificed on day 7. Blood was obtained for the measurement of serum albumin and the evaluation of renal function as measured by blood urea nitrogen (BUN) and plasma creatinine. Cell fraction of the glomeruli was prepared for bleomycin detectable iron assay. The microsome fraction was utilized for the measurement of CYP content.
as §1
PIP is believed to inhibit CYP2B1 by forming an inhibitory complex therewith. PIP was administered at a dose of 85 mg/kg of body weight (BW) by an intraperitoneal injection 16 hours prior to PAN injection and then once a day.

[3] = test system: glomeruli of PAN-treated rats; experiment: Bleomycin detectable iron assay in glomeruli of PAN-treated rats; format: in vivo, rat; details: for bleomycin detectable iron content in the glomeruli: PAN-treated rats, CM 120 mg/kg, PB 400 mg/kg or PIP 85 mg/kg ip, 6 hours, day 4, day 7
Description: Glomeruli were isolated by a combination of sieving and differential centrifugation as described in Ueda et al, 19996, Kidney Intl. 49:370-373, and Baliga et al, 1992, Am. J. Physiol. 263:214-221. Glomeruli isolated from two rats were pooled together (as N of 1) for the isolation of microsomes. Iron capable of catalyzing free radical reactions was measured by bleomycin detectable iron assay as described by Gutteridge et al, 1981, Biochem. J. 199:263-265, Gutteridge et al, 1982, Biochem. J. 206:605-609, Baliga et al, 1993, Bioche.

cytochrome P450 = experiment: Cytochrome P450 content of microsome fraction (CO difference spectrum); details: for CYP content in kidney / glomeruli: PAN-treated rats, day 7
Description: as §2

ferritin = experiment: Ferritin immunohistochemistry in kidney of PAN-treated rats; format: in vivo, rat
Description: Kidney cortical sections were fixed in 10% buffered formalin for 6 hours and embedded in paraffin. After deparaffinization and antigen retrieval, the sections were immunolabeled and visualized according to an avidin-biotin complex (ABC) method. The primary antibody for detection of ferritin was polyclonal anti-Ferritin (L subunit) antibody (605022; Boehringer Mannheim Corp., Indianapolis, Ind., USA).

[4] = test system: glomerular epithelial cells GEC; experiment: PAN induced hydroxyl radical formation in GEC (deoxyribose degradation); format: cell-based, rat; details: PAN 1.5 mM 1 h; preincubation CM 2 mM, PB 25 μM, RN 1 mM, PIP 0.2 mM, pyruvate 10 mM
Description: 2-deoxy-D-ribose in a final concentration of 3 mM was added to the medium just prior to the incubation. At the end of the incubation, the incubation medium was collected for the measurement of hydroxyl radical formation by deoxyribose degradation method as in Baliga et al (Kidney Intl. 1996, 50:1118-1124.).
Confluent GEC monolayer was washed twice with HBSS and then incubated with 1.5 mM PAN in HBSS for a period of time before substantial cell killing occurs (1 h) at 37° C. 2-deoxy-D-ribose in a final concentration of 3 mM was added to the medium just prior to the incubation. At the end of the incubation, the incubation medium was collected for the measurement of hydroxyl radical formation by deoxyribose degradation method described in Baliga et al, 1996, Kidney Int. 50:1118-1124. To determine the effect of CYP inhibitors on the hydroxyl radical formation, GEC monolayers were preincubated with CM, RN or PB as mentioned above.

[5] = test system: glomerular epithelial cells GEC; experiment: Intracellular H2O2 generation in GEC (DCF fluorescence); format: cell-based, rat; details: PAN 1.5 mM; CM, PIP, RN or pyruvate 10 mM
Description: The principle of this method is that the oxidation of 2′,7′-dichlorofluorescin-diacetate (DCFH-DA) in the presence of H2O2 produces the highly fluorescent compound 2′,7′-dichlorofluroescin (DCF) which can be measured by fluorometer. The intracellular generation of H2O2 in GEC was tested utilizing the microplate assay procedure described by Rosenkranz et al (J. Immunol. Methods, 1992, 156:39-45.). In brief, confluent GEC were harvested by trypsin and suspended in HBSS. After an equilibration period at 37° C. with constant shaking, they were transferred to a microplate (2×10^5-1×10^6 cells/well) and then incubated at 37° C. with equal volumes of DCFH-DA (10 μl/ml) and PAN (1.5 mM) for the planned time period. At the end of the incubation, the fluorescent intensity of the cell suspension was read using a fluorescence spectrophotometer (wavelength 485/535 nm) capable of reading microtiter plates.

HO-1 = HO-1 induction in GEC exposed to PAN (western blot); format: cell-based, rat; details: PIP 0.2 mM, CM 2 mM, pyruvate 10 mM
From the text: The microsome fraction obtained was subjected to SDS-page electrophoresis in 1 mm slab gels. The separated forms were transferred from gel to a nitrocellulose sheet using a Mini Trans-blot electroblotting unit. The primary antibodies were monoclonal anti-HO-1 (OSA-111, StressGen, Victoria, BC, Canada) and monoclonal anti-CYP2B1 (PM25, Oxford Biomedical Research, Oxford, Mich., USA). Subsequent to primary and secondary antibody (peroxidase-labeled) treatment, the blots were visualized by enhanced chemiluminescence method.

CN/C(=N/CCSCc1nc[nH]c1C)NC#N [CM, cimetidine]
Body weight After Treatment (day7) [1]: 253 ± 9 g
proteinuria [2]: substantial protection
proteinuria ([2]; listed as C<): significant protection
serum albumin [2]: prevented
bleomycin detectable iron content in the glomeruli [3]: significantly prevent the increase; also recorded: significantly prevented this increase
CYP content in kidney / glomeruli (cytochrome P450): significantly preserve
ferritin content in the glomeruli and the tubules (ferritin): markedly reduced the up-regulation
hydroxyl radical formation in GEC [4]: markedly reduce; also recorded: significantly reduced
intracellular H2O2 generation in GEC [5]: significantly decreased
HO-1 induction in GEC (HO-1): significantly prevented the induction

CN(C)c1ncnc2c1ncn2[C@@H]1O[C@H](CO)[C@@H](N)[C@H]1O [PAN, puromycin aminonucleoside]
ascites and weight gain at the time of sacrifice ([1]; compared to control animals and those treated with CYP inhibitors): developed ascites and significant weight gain
Body weight After Treatment (day7) [1]: 291 ± 8 g
proteinuria [2]: significant proteinuria on the fourth day; also recorded: nephrotic range proteinuria
serum albumin [2]: markedly decreased; also recorded: significant decrease
bleomycin detectable iron content in the glomeruli [3]: markedly elevated
catalytic iron content in the glomeruli (bleomycin detectable iron assay) ([3]; rats 7 days after PAN 7.5 mg/100 g BW iv, control value 39, N=3, P<0.01): 160 nmol/mg protein
CYP content in the liver (cytochrome P450; PAN treated vs untreated rats): no difference
CYP content in kidney / glomeruli (cytochrome P450): not detectable
ferritin content in the glomeruli and the tubules (ferritin): significant increase
hydroxyl radical formation in GEC [4]: significant increase; also recorded: significant production
intracellular H2O2 generation in GEC [5]: marked increase
HO-1 induction in GEC (HO-1): marked induction
